Test results published in patent US12233083B2, “Methods for the use of 5′-adenosine diphosphate ribose (ADPR)” (Invirsa, Inc., priority 2018, dated 2025).
Where “and” joins values, the source holds several entries; their conditions need not be identical. Equal entries are not always repeated. Entries after “also recorded” stand apart in the source; their conditions may differ. Where two headings read alike, the source gives them in different places.

Columns and labels:
HSV-1, strain MacIntyre = experiment: Plaque inhibition against HSV-1 strain MacIntyre in A549 cells; assay type: cell-based, herpes simplex virus type 1; settings: for Percent plaque area (ImageJ): A549 cells, duplicate wells
Experimental: Background: […] Again, acyclovir was included as a positive control. […] Acyclovir was tested at 0.002 and 0.05 mM. A control, with no treatment was also evaluated. […] After virus adsorption, media was removed and monolayers overlaid with semisolid agarose media containing each drug dilution. Monolayers were fixed and stained with crystal violet to visualize virus plaques. Pictures of the test plates were submitted to client for image analysis. Percent plaque area was calculated using ImageJ, version 1.52i.

Vero cells = settings: African green monkey
Sirt6 = settings: 60 μM
Experimental: Sirt6 expression using western blots was evaluated in human corneal epithelial cells. Cell Culture: Human corneal epithelial cells (ATCC) were grown to just below confluency (80-90%) at 37° C., 5% CO2. They were washed twice with sterile phosphate buffered saline (PBS) and serum starved for 2 hours at 37° C. […] They were incubated for either 15, 30, 60 or 120 minutes with treatment. After each time point, treatment was aspirated and cells were washed twice with ice cold PBS. Cells were lysed in ice-cold cell lysis buffer and rotated end-over-end at 4° C. for 30 minutes. They were then centrifuged at 14,000g for 30 minutes at 4° C. […] Samples were stored frozen at -20° C. until performing the Western Blot. […] Proteins were electrophoresed at [MUT] for approximately 50 minutes then transferred to nitrocellulose. After blocking the blot for 1 hour at room temperature in 3% BSA in a standard mixture of tris-buffered saline and Polysorbate 20 (TBST), primary antibody (anti-Sirtuin 6) was added in blocking buffer and incubated overnight at 4° C. The blot was washed 3 times with TBST and HRP-linked secondary antibody added at 1:2000 for 40 minutes at room temperature. The blot was again washed 3 times with TBST and developed with ECL reagents for 1 minute. Images were obtained with ChemiDoclt Imager (UVP, Upland CA) with exposures ranging from 30 seconds to 5 minutes. […]

[1] = biological target: purified recombinant GST-SIRT6 protein (Homo sapiens, UniProt Q8N6T7); settings: first study
Experimental: This first set of studies was performed using a Western blot method (Rahnasto-Rilla, 2016, Methods Mol. Biol., 1436:259-269) for the in vitro evaluation of Sirt6 deacetylation activity. […] Acetylation level was detected with anti-H3K9Ac antibody and normalized to total H3 histone (FIG. 5 (b)).

HRSV [2] = experiment: Inhibition of HRSV replication in A549 cells (RSV with Renilla luciferase reporter); assay type: cell-based, human respiratory syncytial virus
Interferon gamma (IFNγ) = experiment: Cotton rat RSV lung infection: lung IFNγ gene expression by PCR; assay type: in vivo; settings: 0.5% soln, 50 μL IN BID, day 5, vs PBS
Experimental: (§1) Methods: In view of the reduction in hRSV cellular infection in A549 and human airway epithelial cells, an in vivo experiment in the Cotton Rat was carried out using RSVA2 infection. In this study, adult male cotton rats (6-8 weeks of age) were divided into groups of 4 animals each. Animals were pre-bled for serum collection and ear tagged for identification. All animals were infected via intranasal instillation with 0.1 mL of RSV/A2 at 10^5 plaque-forming units (pfu) per animal.
(§2) At each treatment the animals received 50 μL. On day 5, the animals were sacrificed for viral lung titers and cytokine analysis. Interferon gamma (IFNγ) and transforming growth factor beta (TGFβ) gene expression were analyzed by PCR. The cytokine mRNA level was normalized relative to beta actin.

[3] = test system: transforming growth factor beta (TGFβ); experiment: Cotton rat RSV lung infection: lung TGFβ gene expression by PCR; assay type: in vivo; settings: 0.5% soln, 50 μL IN BID, day 5, vs PBS
Experimental: as §1, §2

RSV/A2 = experiment: Cotton rat RSV lung infection: lung viral titer; assay type: in vivo; settings: 0.5% soln, 50 μL IN BID, day 5, vs PBS
Experimental: as §1, §2

HRSV [4] = experiment: Reduction of HRSV infection in primary human airway epithelial (HAE) cultures (luciferase); assay type: cell-based, human respiratory syncytial virus; settings: 0.9 and 2.7 mg/ml, days 1 and 3 (24 and 72 hours) post inoculation
HRSV [5] = experiment: Reduction of HRSV cellular infection in A549 cells (RSV with GFP reporter, infected cells counted); assay type: cell-based, human respiratory syncytial virus

Chain of purified recombinant GST-SIRT6 protein (Q8N6T7 whole entry): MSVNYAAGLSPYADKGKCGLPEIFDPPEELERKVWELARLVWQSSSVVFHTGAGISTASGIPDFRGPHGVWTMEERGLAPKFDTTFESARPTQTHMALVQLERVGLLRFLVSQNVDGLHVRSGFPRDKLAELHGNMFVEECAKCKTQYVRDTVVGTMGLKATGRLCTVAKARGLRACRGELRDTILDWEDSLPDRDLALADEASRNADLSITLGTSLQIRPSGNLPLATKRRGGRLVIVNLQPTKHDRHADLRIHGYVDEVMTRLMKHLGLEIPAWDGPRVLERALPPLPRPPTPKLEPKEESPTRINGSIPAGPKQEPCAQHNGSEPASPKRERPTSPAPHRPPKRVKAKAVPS

Compound: Nc1nc2c(ncn2COCCO)c(=O)[nH]1 [Acyclovir]
- HSV-1 plaques observed in wells (HSV-1, strain MacIntyre; Acyclovir 0.002 mM): more smaller plaques, but not as many nor as large as the untreated wells
- HSV-1 plaques observed in wells (HSV-1, strain MacIntyre; acyclovir 0.05 mM): few small breakthrough plaques
- Toxicity Grade on Vero Cells (Vero cells; 0.1 μM): 0
- Toxicity Grade on Vero Cells (Vero cells; 2 μM): 0
- Toxicity Grade on Vero Cells (Vero cells; 50 μM): 0

Compound: Nc1ncnc2c1ncn2[C@@H]1O[C@H](COP(=O)([O-])OP(=O)([O-])OC[C@H]2OC(O)[C@H](O)[C@@H]2O)[C@@H](O)[C@H]1O.[Li+].[Li+] (some centres unmarked) [Li2-ADPR, dilithium ADPR]
- Sirt6 protein concentration relative to baseline (No Treat lane) (Sirt6; 30 minutes): 155%
- Sirt6 protein concentration relative to baseline (No Treat lane) (Sirt6; two hours): returned to baseline
- Sirt6 deacetylation activity (inverse of H3K9Ac / total H3) ([1]; between 0.01 and 1 μM): increasing activation
- Sirt6 deacetylation activity (inverse of H3K9Ac / total H3) ([1]; concentrations of 10 μM and above): variable activity
- inhibition of RSV replication (luminescence), difference (HRSV [2]; 2.7 mg/ml): five
- HRSV replication (luminescence) with increasing concentrations (HRSV [2]; days 1 and 2 after infection): significant dose-dependent inhibition
- Percent plaque area (ImageJ) (HSV-1, strain MacIntyre; 0.1 mM): 8.1% and 8.3%
- Percent plaque area (ImageJ) (HSV-1, strain MacIntyre; 0.4 mM): 14.3% and 7.3%
- Percent plaque area (ImageJ) (HSV-1, strain MacIntyre; 1.2 mM): 4.8% and 3.8%
- HSV-1 plaques observed in wells (HSV-1, strain MacIntyre; Li2-ADPR 0.1 mM): plaques similar in number and size as the untreated wells
- HSV-1 plaques observed in wells (HSV-1, strain MacIntyre; Li2-ADPR increased from 0.4 to 1.2 mM): the plaque number decreased and the plaque size decreased
- lung IFNγ mRNA (normalized to beta actin) (Interferon gamma (IFNγ)): increase
- lung TGFβ mRNA (normalized to beta actin) [3]: significant decrease
- lung RSV titers (RSV/A2): reduced
- RSV replication / percentage of cells infected in HAE cultures (luciferase activity) (HRSV [4]): significantly inhibiting; also recorded: significant reduction
- reduction of percentage of A549 cells infected with HRSV (HRSV [5]; 0.1 mg/ml): ~50%
- reduction of percentage of A549 cells infected with HRSV (HRSV [5]; 2.7 mg/ml): ~85%
- percentage of A549 cells infected with increasing concentrations (HRSV [5]; days 1 and 2 after inoculation): significant reduction
